Columns and labels:
[1] = molecular target: T1, Angiotensin-converting enzyme (Rattus norvegicus, UniProt P47820); test: Compound was measured for the inhibition of Angiotensin I converting enzyme
T1 sequence (P47820 whole entry): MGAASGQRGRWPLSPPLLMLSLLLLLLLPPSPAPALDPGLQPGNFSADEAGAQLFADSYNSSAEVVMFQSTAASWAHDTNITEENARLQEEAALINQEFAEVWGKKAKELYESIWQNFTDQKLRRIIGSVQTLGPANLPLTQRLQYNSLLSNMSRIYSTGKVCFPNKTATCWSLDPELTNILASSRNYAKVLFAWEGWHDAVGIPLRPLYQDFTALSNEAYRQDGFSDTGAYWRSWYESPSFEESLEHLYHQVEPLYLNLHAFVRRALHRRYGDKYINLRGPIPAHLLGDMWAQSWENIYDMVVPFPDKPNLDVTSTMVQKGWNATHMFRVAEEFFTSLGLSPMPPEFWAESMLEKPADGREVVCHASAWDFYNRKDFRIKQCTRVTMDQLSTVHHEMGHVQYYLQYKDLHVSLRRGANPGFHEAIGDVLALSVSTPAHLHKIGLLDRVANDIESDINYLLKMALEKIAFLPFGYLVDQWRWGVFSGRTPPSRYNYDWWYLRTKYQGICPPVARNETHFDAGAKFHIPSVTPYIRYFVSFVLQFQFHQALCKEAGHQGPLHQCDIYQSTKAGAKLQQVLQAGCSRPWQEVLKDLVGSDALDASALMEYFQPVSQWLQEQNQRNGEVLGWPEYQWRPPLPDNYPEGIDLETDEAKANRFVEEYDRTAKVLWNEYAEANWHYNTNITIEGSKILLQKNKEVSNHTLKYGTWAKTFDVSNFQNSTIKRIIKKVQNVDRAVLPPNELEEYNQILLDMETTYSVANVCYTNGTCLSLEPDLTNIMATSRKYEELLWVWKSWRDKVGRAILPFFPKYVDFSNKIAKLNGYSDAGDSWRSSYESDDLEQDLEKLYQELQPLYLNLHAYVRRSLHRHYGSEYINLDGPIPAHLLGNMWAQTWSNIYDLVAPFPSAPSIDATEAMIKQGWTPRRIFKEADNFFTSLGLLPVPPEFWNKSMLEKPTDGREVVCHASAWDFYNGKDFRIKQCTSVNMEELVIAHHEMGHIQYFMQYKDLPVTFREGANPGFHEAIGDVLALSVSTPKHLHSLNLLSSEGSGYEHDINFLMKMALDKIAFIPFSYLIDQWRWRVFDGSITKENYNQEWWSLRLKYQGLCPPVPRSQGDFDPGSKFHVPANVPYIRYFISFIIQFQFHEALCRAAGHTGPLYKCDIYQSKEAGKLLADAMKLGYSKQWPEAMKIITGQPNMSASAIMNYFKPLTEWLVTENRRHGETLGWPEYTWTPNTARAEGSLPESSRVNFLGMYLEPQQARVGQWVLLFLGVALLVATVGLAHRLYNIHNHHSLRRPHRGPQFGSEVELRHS

[2] = molecular target: T2, Neprilysin (Rattus norvegicus, UniProt P07861); test: Compound was measured for the inhibition of neutral endopeptidase 24.11(NEP).
T2 sequence (P07861 whole entry): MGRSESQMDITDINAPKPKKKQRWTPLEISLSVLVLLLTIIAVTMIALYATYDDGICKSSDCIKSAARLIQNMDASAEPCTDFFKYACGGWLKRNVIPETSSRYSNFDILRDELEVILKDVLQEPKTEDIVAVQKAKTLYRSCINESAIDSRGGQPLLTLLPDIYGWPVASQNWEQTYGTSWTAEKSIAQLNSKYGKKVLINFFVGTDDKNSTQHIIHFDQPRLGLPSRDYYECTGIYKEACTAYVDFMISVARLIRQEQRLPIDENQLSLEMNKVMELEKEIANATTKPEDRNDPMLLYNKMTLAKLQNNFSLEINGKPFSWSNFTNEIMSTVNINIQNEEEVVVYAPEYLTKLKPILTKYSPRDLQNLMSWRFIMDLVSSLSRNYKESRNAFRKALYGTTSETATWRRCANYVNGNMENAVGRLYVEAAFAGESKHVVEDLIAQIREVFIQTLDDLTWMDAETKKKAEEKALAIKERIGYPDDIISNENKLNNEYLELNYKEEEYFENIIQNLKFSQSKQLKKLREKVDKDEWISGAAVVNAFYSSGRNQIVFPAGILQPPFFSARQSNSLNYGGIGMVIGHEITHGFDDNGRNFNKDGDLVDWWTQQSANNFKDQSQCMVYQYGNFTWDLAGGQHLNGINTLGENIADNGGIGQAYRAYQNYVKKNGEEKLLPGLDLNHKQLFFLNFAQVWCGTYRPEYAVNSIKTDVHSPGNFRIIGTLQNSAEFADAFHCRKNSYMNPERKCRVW

SMILES | IC50 [1] | IC50 [2]
O=C(N[C@@H](Cc1ccccc1)P(=O)(O)CC1(C(=O)N[C@@H](Cc2c[nH]c3ccccc23)C(=O)O)CCCC1)c1ccc([N+](=O)[O-])cc1 | 1.5 nM | 55 nM
CS(=O)(=O)N[C@@H](CCCCN)C(=O)N[C@@H](Cc1ccccc1)P(=O)(O)CC1(C(=O)N[C@@H](Cc2c[nH]c3ccccc23)C(=O)O)CCCC1 | 2.5 nM | 90 nM

Source: ChEMBL document CHEMBL1129117 (Bioorg Med Chem Lett, 1996)
